Reference: patent US20080200405A1, “Drug Resistance Reversal In Neoplastic Disease” (priority 2007, published 2008)

How the values were obtained:
[1] = In vitro stability of OT-551 in dog plasma; assay type: in vitro ADME
Method: (§1) The active metabolite of OT-551 (Cyclopropanecarboxylic acid 1-hydroxy-2,2,6,6-tetramethyl-piperidin-4-yl ester) is TP-H. The objective of this analysis was to determine the in vitro half-life of OT-551 in rat, rabbit, dog, and human plasma under standardized incubation conditions.
(§2) OT-551 was incubated with pooled rat, rabbit, dog, and human plasma for various times under standardized incubation conditions. Pre-labeled tubes containing pooled plasma from rats, rabbits, dogs, and humans were pre-incubated in a shaking 37° C. water bath. A OT-551 solution was added to the tubes at a final concentration of 1000 ng/mL. Time zero samples (n=5) were immediately removed and transferred into tubes containing a stabilizer solution (DTPA, acetylcysteine and ascorbic acid), the LC/MS/MS assay internal standard and methanol. […] The tubes were vortexed, placed on ice, followed by centrifugation. One hundred-μL aliquots of the supernatant were transferred into HPLC sample vials. Additional tubes (n=5 at each time point) were incubated for 5, 10, 20, 30, 60, 120, and 240 minutes at 37° C. and thereafter processed. The amount of OT-551 and TP-H in each incubated sample was quantified using validated LC/MS/MS assays.

[2] = In vitro stability of OT-551 in rabbit plasma; assay type: in vitro ADME
Method: as §1, §2

Angiogenesis in CAM = experiment: Neovascularization on the CAM (Inhibition of Angiogenesis in CAM); assay type: in vivo, chicken; details: 30 ug
Method: In vivo neovascularization was examined by the method previously described by Auerbach et al. (J. Dev. Biol. 41:391-394 (1974)). Ten-day old chicken embryos were purchased from Spafas, Inc. (Preston, Conn.) and were incubated at 37° C. with 55% relative humidity. In the dark, with the aid of a candling lamp, a small hole was punctured in the shell concealing the air sac with a hypodermic needle. A second hole was punctured in the shell on the broadside of the egg directly over an […] portion of the embryonic membrane, as observed during candling. An artificial air sac was created beneath the second hole by applying gentle vacuum to the first hole using a small rubber squeeze bulb. The vacuum caused the chorioallantoic membrane (CAM) to separate from the shell. A window, approximately 1.0 cm^2, was cut in the shell over the dropped CAM with the use of a small crafts grinding wheel (Dremel, Division of Emerson Electric Company Racine, Wis.). The window allowed direct access to the underlying CAM. A pro-angiogenic agent was added to induce new blood vessel branches on the CAM of 10-day old embryos. […] Louis, Mo.) in a solution (95% ethanol and water). The disks were subsequently air dried under sterile conditions. The disks were then suspended in PBS (Phosphate Buffered Saline) and placed on growing CAMs. […] For inducing angiogenesis, sterile filter disks were saturated with bFGF (1 μg/ml) (Life Technologies, Gaithersburg, Md.) or other pro-angiogenesis factors and control disks were saturated with PBS without Calcium and Magnesium. Control disks were saturated with PBS without Calcium and Magnesium. Using sterile forceps one filter/CAM was placed from the window. The window was sealed with Highland brand transparent tape. After 24-48 hr, 10-25 ul of test agent was injected intravenously or added topically into the CAM membrane. Eight-Ten eggs/treatment group were used. CAM tissue directly beneath filter disk was harvested from embryos treated 48 hours prior with compound or control. Tissues were washed three times with PBS. Sections were placed in a 35-mm petri dish (Nalge Nunc, Rochester, N.Y.) and examined under a SV6 stereomicroscope (Karl Zeiss, Thornwood, N.Y.) at 50× magnification. […] Digital images of CAM sections from Petri dish were collected using a 3-CCD color video camera system (Toshiba America, New York, N.Y.). These images were analyzed using Image-Pro Plus software (Media Cybernetics, Silver Spring, Md.). The number of branch points in blood vessels within the circular region superimposed to the area of a filter disk was counted for each section. […] Tissues were washed three times with PBS. Sections were placed in a 35-mm Petri dish (Nalge Nunc; Rochester, N.Y.) and were examined under a SV6 stereomicroscope (Karl Zeiss; Thornwood, N.Y.) at 50× magnification. Digital images of CAM sections adjacent to filters were collected using a 3-CCD color video camera system (Toshiba America; New York, N.Y.) and analyzed with the Image-Pro Plus software (Media Cybernetics; Silver Spring, Md.). The number of vessel branch points contained in a circular region equal to the area of a filter disk was counted for each section. Percent inhibition data are expressed as the quotient of the experimental value minus the negative control value divided by the difference between the positive control value and the negative control value. One image was counted in each CAM preparation, and findings from eight CAM preparations were analyzed for each treatment condition. In addition, each experiment was performed three times. The resulting angiogenesis index is the mean ±SEM (Standard Error of Measurement) of new branch points in each set of treatment. Statistical analysis of blood vessel branching patterns are performed by 1-way analysis of variance (ANOVA) comparing experimental with corresponding control groups.

[3] = Single-dose 10-minute intravenous infusion toxicokinetics of OT-551; assay type: in vivo, Sprague-Dawley rats
Method: Blood for toxicokinetic evaluations was collected at pre-determined time points during and after the infusion. Plasma samples were analyzed for OT-551 and TP-H using validated LC/MS/MS assays. Descriptive toxicokinetic parameters were determined by standard model independent methods (Gilbaldi and Perrier, 1982) based on the plasma concentration-time data. […] The plasma concentrations were rounded to the nearest tenth of a ng/mL before the calculations. […] Nominal time points were used for all calculations. Since there was no apparent gender difference in the plasma concentrations of OT-551 and TP-H, the data for male and female rats at each sampling time point were pooled.

[4] = Sprague-Dawley rats, 10-minute iv infusion of OT-551 10 mg/kg

CC1(C)CC(O)CC(C)(C)N1O [TEMPOL-H]
Concentrations (ng/mL) of TP-H in Dog Plasma ([1]; OT-551 incubation time 0 min): 0.00 ± 0.00 ng/mL | Concentrations (ng/mL) of TP-H in Dog Plasma ([1]; OT-551 incubation time 5 min): 5.85 ± 0.73 ng/mL | Concentrations (ng/mL) of TP-H in Dog Plasma ([1]; OT-551 incubation time 10 min): 8.77 ± 0.65 ng/mL | Concentrations (ng/mL) of TP-H in Dog Plasma ([1]; OT-551 incubation time 20 min): 12.79 ± 0.74 ng/mL | Concentrations (ng/mL) of TP-H in Dog Plasma ([1]; OT-551 incubation time 30 min): 16.22 ± 0.67 ng/mL | Concentrations (ng/mL) of TP-H in Dog Plasma ([1]; OT-551 incubation time 60 min): 25.68 ± 1.04 ng/mL | Concentrations (ng/mL) of TP-H in Dog Plasma ([1]; OT-551 incubation time 120 min): 39.31 ± 1.09 ng/mL | Concentrations (ng/mL) of TP-H in Dog Plasma ([1]; OT-551 incubation time 240 min): 53.92 ± 1.68 ng/mL | Concentrations (ng/mL) of TP-H in Rabbit Plasma ([2]; OT-551 incubation time 0 min): 270.55 ± 35.45 ng/mL | Concentrations (ng/mL) of TP-H in Rabbit Plasma ([2]; OT-551 incubation time 5 min): 587.17 ± 21.99 ng/mL | Concentrations (ng/mL) of TP-H in Rabbit Plasma ([2]; OT-551 incubation time 10 min): 604.21 ± 21.99 ng/mL | Concentrations (ng/mL) of TP-H in Rabbit Plasma ([2]; OT-551 incubation time 20 min): 590.06 ± 40.97 ng/mL | Concentrations (ng/mL) of TP-H in Rabbit Plasma ([2]; OT-551 incubation time 30 min): 533.01 ± 117.40 ng/mL | Concentrations (ng/mL) of TP-H in Rabbit Plasma ([2]; OT-551 incubation time 60 min): 569.19 ± 32.96 ng/mL | Concentrations (ng/mL) of TP-H in Rabbit Plasma ([2]; OT-551 incubation time 120 min): 525.63 ± 10.31 ng/mL | Concentrations (ng/mL) of TP-H in Rabbit Plasma ([2]; OT-551 incubation time 240 min): 477.54 ± 40.95 ng/mL | Inhibition of Angiogenesis in CAM, % Inhibition (Angiogenesis in CAM): 43 ± 10% | peak plasma concentration of TP-H at the end of the OT-551 infusion ([3]; 10 mg/kg OT-551): 2481.7 ng/mL | plasma levels of TP-H at 4 hr post infusion ([3]; 10 mg/kg OT-551): still quantifiable | terminal elimination half-life of TP-H ([3]; 10 mg/kg OT-551): 24 min | peak plasma concentration of TP-H at the end of the OT-551 infusion ([3]; 30 mg/kg OT-551): 8337.7 ng/mL | peak plasma concentration of TP-H at the end of the OT-551 infusion ([3]; 100 mg/kg OT-551): 29020.8 ng/mL | peak plasma concentration of TP-H at the end of the OT-551 infusion ([3]; 200 mg/kg OT-551): 60802.1 ng/mL | levels of TP-H four hours after terminating the infusion relative to concentrations immediately after terminating the infusion ([3]; 30, 100 and 200 mg/kg OT-551): less than 1% | Mean ± SD Plasma Concentrations of TP-H ([3]; OT-551 10 mg/kg iv infusion, 1.167 hr): 204.7 ± 85.6 ng/mL | Mean ± SD Plasma Concentrations of TP-H ([3]; OT-551 10 mg/kg iv infusion, 2.167 hr): 25.2 ± 24.0 ng/mL | Mean ± SD Plasma Concentrations of TP-H ([3]; OT-551 10 mg/kg iv infusion, 4.167 hr): 4.2 ± 10.3 ng/mL | Mean ± SD Plasma Concentrations of TP-H ([3]; OT-551 30 mg/kg iv infusion, 4.167 hr, n = 5): 53.8 ± 29.7 ng/mL | Mean ± SD Plasma Concentrations of TP-H ([3]; OT-551 100 mg/kg iv infusion, 4.167 hr): 160.0 ± 97.5 ng/mL | Mean ± SD Plasma Concentrations of TP-H ([3]; OT-551 200 mg/kg iv infusion, 4.167 hr): 524.5 ± 237.0 ng/mL | AUC(0-4.167 hr) of TP-H [3, 4]: 1694.8 ng·h/mL | Cmax of TP-H [3, 4]: 2481.7 ng/mL | T½ of TP-H ([3]; Sprague-Dawley rats, 10-minute iv infusion of OT-551 10 mg/kg, elimination half-life): 24 min | AUC of TP-H ([3]; Sprague-Dawley rats, 10-minute iv infusion of OT-551 10 mg/kg, to time infinity): 1697.5 ng·h/mL | Cmax of TP-H ([3]; Sprague-Dawley rats, 10-minute iv infusion of OT-551 30 mg/kg): 8337.7 ng/mL | Cmax of TP-H ([3]; Sprague-Dawley rats, 10-minute iv infusion of OT-551 100 mg/kg): 29020.8 ng/mL | Cmax of TP-H ([3]; Sprague-Dawley rats, 10-minute iv infusion of OT-551 200 mg/kg): 60802.2 ng/mL | Mean ± SD Plasma Concentrations of TP-H ([3]; Sprague-Dawley rats, single 10-minute iv infusion of OT-551 10 mg/kg, 0.167 hr from start of infusion): 2481.7 ± 325.8 ng/mL | Mean ± SD Plasma Concentrations of TP-H ([3]; Sprague-Dawley rats, single 10-minute iv infusion of OT-551 30 mg/kg, 0.167 hr, n = 5): 8337.7 ± 2099.5 ng/mL | Mean ± SD Plasma Concentrations of TP-H ([3]; Sprague-Dawley rats, single 10-minute iv infusion of OT-551 100 mg/kg, 0.167 hr): 29020.8 ± 11713.7 ng/mL | Mean ± SD Plasma Concentrations of TP-H ([3]; Sprague-Dawley rats, single 10-minute iv infusion of OT-551 200 mg/kg, 0.167 hr): 60802.2 ± 8922.5 ng/mL | Tmax of TP-H ([3]; rat, in vivo, iv): 10 min
